Source: patent US8067189B2, “Methods for determining sensitivity to vascular endothelial growth factor receptor-2 modulators by measuring the level of collagen type IV” (Bristol-Myers Squibb Company, priority 2005, dated 2011)

Key:
[1] = tested on: VEGFR-2 co-expressed biomarkers (mRNA levels in xenograft tumors); test: Gene expression profiling (Affymetrix mouse 430A arrays) of un-treated vs treated xenograft tumors; type: in vivo
Procedure: (§1) Tumors were propagated in nude mice as subcutaneous (sc) transplants using L2987 and HCT-116 cancer cell lines. Tumor passage occurred approximately every two to four weeks. Tumors were then allowed to grow to the pre-determined size window (100-200 mm^3, tumors outside the range were excluded) and animals were evenly distributed to various treatment and control groups. Animals were treated with the example VEGFR-2 inhibitor (100 mg/kg 1 qd×14 days). Treated animals were checked daily for treatment related toxicity/mortality. Each group of animals was weighed before the initiation of treatment (Wt1) and then again following the last treatment dose (Wt2). The difference in body weight (Wt2−Wt1) provided a measure of treatment-related toxicity. Tumor response was determined by measurement of tumors with a caliper twice a week, until the tumors reached a predetermined target size. Animals that were distributed to various treatment and control groups during the study were eventually sacrificed to obtain tumor and blood samples for genomic and protein analysis.
The colon tumor samples obtained from cancer patients were snap frozen in liquid nitrogen within 20 minutes of resection and stored thereafter at −80° C. The mouse xenograft tumor samples were split into two halves. One half was mixed in a vial of 10% formalin to be used for IHC and the other half was mixed in 1.0 ml of RNAlater™ RNA Stabilization Reagent (Ambion, Inc., Austin, Tex.) held at room temperature for 30 minutes then stored at −80° C. Total RNA was extracted from the tumor samples using the RNeasy Kit™ (Qiagen, Valencia Calif.). At least 1 μg total RNA with a 260/280 ratio ≧1.8 by spectrophotometry (DU640 UV, Beckman Coulter, Fullerton, Calif.) was required for transcriptional profiling. Briefly, the tumor samples were homogenized in a lysis-binding solution supplied by Qiagen. An equal volume of ethanol was mixed into each sample, the mixture was passed through the filter cartridges provided, and the rest of the extraction protocol was followed (Ambion). RNA yield and quality were assessed on a standard 1% agarose gel. A ratio 28 s/18 s RNA in the range of 1.5 to 2.5 indicated high quality RNA that is free of degradation. RNA samples were stored at −80° C.
Transcriptional profiling was performed on the RNA obtained from the tumor samples. The Affymetrix GeneChip system (Affymetrix, Santa Clara, Calif.) was used for hybridization and scanning of the human U133A and mouse 430A arrays. Data were preprocessed using the MAS 5.0 software. Generation of cRNA followed a standard T7 amplification protocol. Total RNA was reverse-transcribed with SuperScript II (Gibco, Carlsbad, Calif.) in the presence of T7-(dT)24 primer to generate first strand cDNA. A second-strand cDNA synthesis was performed in the presence of DNA Polymerase I, DNA ligase, and RNase H (Gibco). The resulting double-stranded cDNA was blunt-ended using T4 DNA polymerase. This double-stranded cDNA was then transcribed into cRNA in the presence of biotin-ribonucleotides using the BioArray High Yield RNA transcript labeling kit (Enzo Life Sciences, Farmingdale, N.Y.). The amplified, biotin-labeled cRNA was purified using Qiagen RNeasy columns (Qiagen Sciences), quantified and fragmented at 94° C. for 35 minutes in the presence of fragmentation buffer (1×). Fragmented cRNA was hybridized to the Affymetrix U113A and 430A arrays overnight at 42° C. The arrays were then placed in the fluidics stations for staining and washing as recommended by Affymetrix protocols. The chips were scanned and raw intensity values were generated for each probe on the arrays.
The 94 co-expressed VEGFR-2 genes identified from human cancers profiled on U133A arrays were used to identify their corresponding mouse homolog from mouse xenografts tumors profiled on mouse 430A arrays. […]

VE-Cadherin = test: ELISA of blood samples from tumor bearing mice; type: in vivo, mouse; conditions: 100 mg/kg 1 qd×14 days
Procedure: as §1, with “The difference in body weight (Wt2−Wt1) provided a measure of treatment-related toxicity.” left out, “Animals that were distributed to various treatment and control groups during the study were eventually sacrificed to obtain tumor and blood samples for genomic and protein analysis.” left out
(§2) An ELISA method for the detection and measurement of Collagen Type IV and VE-Cadherin on human plasma or any biological sample where the proteins must be detected and measured is described. […] The reaction was terminated by addition of acid and absorbance was measured at 450 nm. A standard curve was prepared from collagen type IV standard dilutions and collagen type IV samples concentration determined. […] The reaction was terminated by addition of acid and absorbance was measured at 450 nm. A standard curve was prepared from VE-cadherin standard dilutions and VE-cadherin samples concentration determined. […]

Collagen type IV = test: ELISA of blood samples from tumor bearing mice; type: in vivo, mouse; conditions: 100 mg/kg 1 qd×14 days
Procedure: as §1, with “The difference in body weight (Wt2−Wt1) provided a measure of treatment-related toxicity.” left out, “Animals that were distributed to various treatment and control groups during the study were eventually sacrificed to obtain tumor and blood samples for genomic and protein analysis.” left out
as §2

Compound: Cc1cc2c(F)c(Oc3ncnn4cc(OC[C@@H](C)OC(=O)[C@H](C)N)c(C)c34)ccc2[nH]1 [example VEGFR-2 inhibitor, [(1R),2S]-2-Aminopropionic acid 2-[4-(4-fluoro-2-methyl-1H-indol-5-yloxy)-5-methylpyrrolo[2,1-f][1,2,4]triazin-6-yloxy]-1-methylethyl ester]
- fold-change mRNA, Tie1 ([1]; mouse 430A probe 1416238_at, 100 mg/kg 1 qd×14 days, t-test P 0.00103262): 11
- fold-change mRNA, endoglin (Eng) ([1]; mouse 430A probe 1417271_a_at, 100 mg/kg 1 qd×14 days, t-test P 0.021873085): 2
- fold-change mRNA, Prg1 ([1]; mouse 430A probe 1417426_at, 100 mg/kg 1 qd×14 days, t-test P 0.034821585): 2
- fold-change mRNA, Eltd1 ([1]; mouse 430A probe 1418059_at, 100 mg/kg 1 qd×14 days, t-test P 0.018655985): 2
- direction of change in mRNA levels, Tek ([1]; mouse 430A probe 1418788_at): no
- fold-change mRNA, Tek ([1]; mouse 430A probe 1418788_at, 100 mg/kg 1 qd×14 days, t-test P 0.047098006): 1
- direction of change in mRNA levels, S100a8 ([1]; mouse 430A probe 1419394_s_at): no
- fold-change mRNA, S100a8 ([1]; mouse 430A probe 1419394_s_at, 100 mg/kg 1 qd×14 days, t-test P 0.040857487): 1
- fold-change mRNA, C1qr1 (Ly68) ([1]; mouse 430A probe 1419589_at, 100 mg/kg 1 qd×14 days, t-test P 0.000005): 5
- fold-change mRNA, Agtrl1 ([1]; mouse 430A probe 1423037_at, 100 mg/kg 1 qd×14 days, t-test P 5.54812E−04): 4
- fold-change mRNA, nidogen 2 (Nid2) ([1]; mouse 430A probe 1423516_a_at, 100 mg/kg 1 qd×14 days, t-test P 0.024126268): 3
- direction of change in mRNA levels, Col16a1 ([1]; mouse 430A probe 1427986_a_at): no
- fold-change mRNA, Col4a1 ([1]; mouse 430A probe 1427986_a_at, 100 mg/kg 1 qd×14 days, t-test P 0.000014): 4
- fold-change mRNA, Col16a1 ([1]; mouse 430A probe 1427986_a_at, 100 mg/kg 1 qd×14 days, t-test P 0.014896833): 1
- fold-change mRNA, VE-Cadherin (Cdh5) ([1]; mouse 430A probe 1433956_at, 100 mg/kg 1 qd×14 days, t-test P 0.001154369): 2
- direction of change in mRNA levels, Pkig ([1]; mouse 430A probe 1434820_s_at): no
- fold-change mRNA, Pkig ([1]; mouse 430A probe 1434820_s_at, 100 mg/kg 1 qd×14 days, t-test P 0.032286798): 1
- fold-change mRNA, Agtrl1 ([1]; mouse 430A probe 1438651_a_at, 100 mg/kg 1 qd×14 days, t-test P 0.026038828): 2
- fold-change mRNA, Gng11 ([1]; mouse 430A probe 1448942_at, 100 mg/kg 1 qd×14 days, t-test P 0.001326667): 2
- direction of change in mRNA levels, Cav1 ([1]; mouse 430A probe 1449145_a_at): no
- fold-change mRNA, Cav1 ([1]; mouse 430A probe 1449145_a_at, 100 mg/kg 1 qd×14 days, t-test P 2.72030E−04): 1
- direction of change in mRNA levels, Pde1a ([1]; mouse 430A probe 1449298_a_at): no
- fold-change mRNA, Pde1a ([1]; mouse 430A probe 1449298_a_at, 100 mg/kg 1 qd×14 days, t-test P 0.025570996): 1
- fold-change mRNA, Col4a1 ([1]; mouse 430A probe 1452035_at, 100 mg/kg 1 qd×14 days, t-test P 0.000018): 6
- amount of VE-Cadherin protein detected in the blood following treatment (VE-Cadherin): decreased to levels observed in the healthy mice bearing no tumors
- amount of Collagen type IV protein detected in the blood following treatment (Collagen type IV): decreased to levels observed in the healthy mice bearing no tumors
